Several values for one entry are separate records, joined by “and”; a condition that tells them apart may be missing. Equal entries are not always repeated.

This data set can be described thus: xn = mol fraction of the nth substance listed.

As usually defined, the viscosity is the resistance of a fluid to flow. As to `CCCCn1cc[n+](C)c1.O=S(=O)([N-]S(=O)(=O)C(F)(F)F)c1ccc[cH-]1.[Fe+2].c1cc[cH-]c1` + CCCC[n+]1ccn(C)c1.O=S(=O)([N-]S(=O)(=O)C(F)(F)F)C(F)(F)F, the viscosity was 1226.1 mPa·s (298.15 K, 100 kPa, x2 = 0.461); 542.8 mPa·s (298.15 K, 100 kPa, x2 = 0.56); 295.4 mPa·s (298.15 K, 100 kPa, x2 = 0.661); 108.5 mPa·s (298.15 K, 100 kPa, x2 = 0.839); 73.3 mPa·s (298.15 K, 100 kPa, x2 = 0.92).
As for `CCCCCCCCn1cc[n+](C)c1.O=S(=O)([N-]S(=O)(=O)C(F)(F)F)C(F)(F)F` + c1ccccc1, the viscosity came to 3.21 mPa·s (293 K, 101 kPa, x1 = 0.1); 23.5 mPa·s (293 K, 101 kPa, x1 = 0.4); 74.4 mPa·s (293 K, 101 kPa, x1 = 0.8); 113 mPa·s (293 K, 101 kPa, x1 = 1).
For orientation: speed of sound means how fast a sound wave travels through the sample. For `CCCCCCCCn1cc[n+](C)c1.[Cl-]` + O, the speed of sound is, setting by setting: (298.15 K, 101 kPa, x2 = 0) 1721 m/s; (298.15 K, 101 kPa, x2 = 0.1484) 1666.7 m/s; (298.15 K, 101 kPa, x2 = 0.203) 1655.1 m/s; (298.15 K, 101 kPa, x2 = 0.5334) 1632.2 m/s; (298.15 K, 101 kPa, x2 = 0.6807) 1639.3 m/s; (298.15 K, 101 kPa, x2 = 0.8185) 1650.7 m/s. Moreover, the speed of sound is reported as 1639.6 m/s (298.15 K, 101 kPa, x2 = 0.9307) and 1611.3 m/s (298.15 K, 101 kPa, x2 = 0.9635).
The molecule `CCCCCC[n+]1ccn(C)c1.O=S(=O)([N-]S(=O)(=O)C(F)(F)F)C(F)(F)F` + O returned a viscosity (293.15 K, 101 kPa, x2 = 0.233) of 55 mPa·s.
`CC[N+]1(C)CCCC1.[Br-]` + OCC(O)CO: where the note is “313.15 K, 100 kPa, x1 = 0.3333”, the speed of sound came out at 1870.1 m/s.
Consider `CCCCCCCCn1cc[n+](C)c1.O=S(=O)([N-]S(=O)(=O)C(F)(F)F)C(F)(F)F` + O, for which the viscosity (293.15 K, 101 kPa, x2 = 0.205) is 75 mPa·s. The electrical conductivity (295.15 K, 101 kPa, x2 = 0.205) came out at 0.21 S/m.
`CC[N+](CC)(CC)CC.[Cl-]` + OCC(O)CO yielded a viscosity (318.15 K, 100 kPa, x1 = 0.333) of 94.1 mPa·s.
On to `CCCC[P+](CCCC)(CCCC)CCCC.[Cl-]` + CCC(=O)O, for which, under “298 K, 100 kPa, x1 = 0.5”, the viscosity stood at 140 mPa·s.
For the setting “298 K, 101 kPa, x2 = 0.0716”, `CCCC[n+]1ccn(C)c1.O=S(=O)([N-]S(=O)(=O)C(F)(F)F)C(F)(F)F` + O registered a viscosity of 27 mPa·s.
For the molecule `ClCCl` + CCCC[n+]1ccn(C)c1.O=S(=O)([N-]S(=O)(=O)C(F)(F)F)C(F)(F)F, the electrical conductivity (296.35 K, 100 kPa, x2 = 0.0271) turned out to be 0.64 S/m; the electrical conductivity (296.35 K, 100 kPa, x2 = 0.039) came to 0.79 S/m; the electrical conductivity (296.35 K, 100 kPa, x2 = 0.0623) stood at 1.1 S/m; the electrical conductivity (296.35 K, 100 kPa, x2 = 0.1129) is 1.32 S/m; the electrical conductivity (296.35 K, 100 kPa, x2 = 0.2144) came to 1.58 S/m.
As to `CC[n+]1ccn(C)c1.O=S(=O)([O-])C(F)(F)F` + O, the electrical conductivity is, setting by setting: (296.75 K, 101 kPa, x2 = 0.304) 1.12 S/m; (298.15 K, 101 kPa, x2 = 0.304) 1.23 S/m; (298.35 K, 101 kPa, x2 = 0.304) 1.22 S/m; (300.65 K, 101 kPa, x2 = 0.304) 1.32 S/m; (301.05 K, 101 kPa, x2 = 0.304) 1.33 S/m; (301.85 K, 101 kPa, x2 = 0.304) 1.37 S/m. The molecule also returned an electrical conductivity (302.75 K, 101 kPa, x2 = 0.304) of 1.44 S/m.
The molecule `CC(O)C(=O)[O-].CN(C)CCOCC[NH+](C)C` + O came in with a viscosity (298.15 K, 100 kPa, x1 = 0.0172) of 1.2 mPa·s; a viscosity (298.15 K, 100 kPa, x1 = 0.0301) of 1.28 mPa·s; a viscosity (298.15 K, 100 kPa, x1 = 0.0456) of 1.76 mPa·s; a viscosity (298.15 K, 100 kPa, x1 = 0.0985) of 6.58 mPa·s.
`CCCC[P+](CCCC)(CCCC)CCCC.[Br-]` + OCCO came in with a viscosity (298.15 K, 101.3 kPa, x1 = 0.333) of 93.4 mPa·s; a viscosity (303.15 K, 101.3 kPa, x1 = 0.333) of 72.4 mPa·s; a viscosity (308.15 K, 101.3 kPa, x1 = 0.333) of 56.9 mPa·s; a viscosity (313.15 K, 101.3 kPa, x1 = 0.333) of 45.3 mPa·s; a viscosity (318.15 K, 101.3 kPa, x1 = 0.333) of 36.6 mPa·s.
On to `CCCC[n+]1ccn(C)c1.F[B-](F)(F)F` + O, for which the electrical conductivity is, setting by setting: (288.15 K, 100 kPa, x1 = 0.0001) 0.0392 S/m; (298.15 K, 100 kPa, x1 = 0.0001) 0.0505 S/m and 0.036 S/m; (318.15 K, 100 kPa, x1 = 0.0001) 0.0942 S/m and 0.0522 S/m.
For `CC[n+]1ccn(C)c1.CS(=O)(=O)[O-]` + O, the viscosity runs as follows: (283.15 K, 102.2 kPa, x1 = 0.75) 88.7 mPa·s; (288.15 K, 102.2 kPa, x1 = 0.75) 69 mPa·s; (293.15 K, 102.2 kPa, x1 = 0.75) 53.3 mPa·s; (308.15 K, 102.2 kPa, x1 = 0.75) 28.4 mPa·s; (318.15 K, 102.2 kPa, x1 = 0.75) 20.6 mPa·s; (323.15 K, 102.2 kPa, x1 = 0.75) 17.9 mPa·s. Where the note is “333.15 K, 102.2 kPa, x1 = 0.75”, the viscosity was 14 mPa·s.
Regarding `CCCO` + C=CC[n+]1ccn(C)c1.O=S(=O)([N-]S(=O)(=O)C(F)(F)F)C(F)(F)F, the viscosity (298.15 K, 100 kPa, x2 = 0) is on record as 1.91 mPa·s.
Regarding `C[N+](C)(C)CCO.O=C([O-])[C@@H]1CCCN1` + O, the viscosity was determined as 0.91 mPa·s (308.15 K, 100 kPa, x1 = 0.0043); 2.01 mPa·s (308.15 K, 100 kPa, x1 = 0.0342); 1.11 mPa·s (323.15 K, 100 kPa, x1 = 0.0202); 1.52 mPa·s (323.15 K, 100 kPa, x1 = 0.0342); 1 mPa·s (338.15 K, 100 kPa, x1 = 0.0202); 0.88 mPa·s (353.15 K, 100 kPa, x1 = 0.0202). Moreover, the viscosity (353.15 K, 100 kPa, x1 = 0.0342) was determined as 0.98 mPa·s.
`CC[N+]1(C)CCCC1.[Br-]` + OCCO: the speed of sound came to 1716 m/s (293.15 K, 100 kPa, x1 = 0.2); 1704 m/s (298.15 K, 100 kPa, x1 = 0.2); 1692 m/s (303.15 K, 100 kPa, x1 = 0.2); 1681 m/s (308.15 K, 100 kPa, x1 = 0.2); 1654 m/s (313.15 K, 100 kPa, x1 = 0.2).
In the case of `[Cl-].c1ccc(C[P+](c2ccccc2)(c2ccccc2)c2ccccc2)cc1` + OCCO, the viscosity was determined as 69.7 mPa·s (303.15 K, 100 kPa, x1 = 0.0833); 50.2 mPa·s (313.15 K, 100 kPa, x1 = 0.0833); 31 mPa·s (333.15 K, 100 kPa, x1 = 0.0833); 21.35 mPa·s (353.15 K, 100 kPa, x1 = 0.0833).
With `CCCCCCCCCC(=O)O` + CCCC[N+](CCCC)(CCCC)CCCC.[Cl-], the viscosity worked out at 372 mPa·s (298.15 K, 100 kPa, x2 = 0.333); 73.2 mPa·s (328.15 K, 100 kPa, x2 = 0.333); 22.2 mPa·s (358.15 K, 100 kPa, x2 = 0.333).
As to `CCOS(=O)(=O)[O-].CC[n+]1ccn(C)c1` + CN1CCCC1=O, the viscosity (288.15 K, 100 kPa, x1 = 1) was found to be 155.5 mPa·s; the viscosity (293.15 K, 100 kPa, x1 = 0.8821) was determined as 80.25 mPa·s; the viscosity (298.15 K, 100 kPa, x1 = 0.596) was 27.95 mPa·s; the viscosity (318.15 K, 100 kPa, x1 = 0.3021) was found to be 5.615 mPa·s.
Regarding `CCCCCCCCn1cc[n+](C)c1.[Br-]` + O, the viscosity is, setting by setting: (298.15 K, 100 kPa, x2 = 0.9008) 31.3 mPa·s; (298.15 K, 100 kPa, x2 = 0.9487) 7.96 mPa·s.
With `CCCC[P+](CCCC)(CCCC)CCCC.F[B-](F)(F)F` + C1COCO1, the speed of sound by setting is: (298.15 K, 100 kPa, x1 = 0.002) 1341.9 m/s; (298.15 K, 100 kPa, x1 = 0.0052) 1400.4 m/s; (298.15 K, 100 kPa, x1 = 0.0073) 1474.1 m/s.
In the case of `CCCCC(CC)COC(=O)CC(C(=O)OCC(CC)CCCC)S(=O)(=O)[O-].CCCC[n+]1ccn(C)c1` (stereo unspecified) + O, the viscosity was 692 mPa·s (313.15 K, 99.6 kPa, x1 = 0.8695); 363 mPa·s (323.15 K, 99.6 kPa, x1 = 0.8695); 207 mPa·s (333.15 K, 99.6 kPa, x1 = 0.8695).
Turning to `CC[n+]1ccn(C)c1.O=S(=O)([N-]S(=O)(=O)C(F)(F)F)C(F)(F)F` + O, the viscosity reads like this: (297.55 K, 101 kPa, x1 = 0.722) 18.2 mPa·s; (297.55 K, 101 kPa, x1 = 0.8) 21.9 mPa·s; (297.55 K, 101 kPa, x1 = 0.941) 28.9 mPa·s; (297.55 K, 101 kPa, x1 = 1) 36.3 mPa·s.

(Values after a compilation of properties of binary mixtures.)
